pIC50: −log10 of the molar value. Counter-ions that a name gives are not always drawn. Like-named read-outs stand apart in the source and are kept apart here.
Experiments:
[1] = biological target: T1, muscarinic (M1) receptors (Rattus norvegicus, UniProt P08482); experiment: In vitro [3H]-pirenzepine binding (muscarinic M1, rat cerebral cortical membranes); design: species or system rat (male Sprague-Dawley); settings: for IC50: inhibition of 3H-pirenzepine binding, rat cerebral cortical membranes, read-out: Radioligand binding data (IC50, nM) M1
T1 construct: Cerebral cortical membranes were prepared by differential centrifugation; from tissue; host or cells: rat cerebral cortex membranes
T1 sequence (P08482 1-460): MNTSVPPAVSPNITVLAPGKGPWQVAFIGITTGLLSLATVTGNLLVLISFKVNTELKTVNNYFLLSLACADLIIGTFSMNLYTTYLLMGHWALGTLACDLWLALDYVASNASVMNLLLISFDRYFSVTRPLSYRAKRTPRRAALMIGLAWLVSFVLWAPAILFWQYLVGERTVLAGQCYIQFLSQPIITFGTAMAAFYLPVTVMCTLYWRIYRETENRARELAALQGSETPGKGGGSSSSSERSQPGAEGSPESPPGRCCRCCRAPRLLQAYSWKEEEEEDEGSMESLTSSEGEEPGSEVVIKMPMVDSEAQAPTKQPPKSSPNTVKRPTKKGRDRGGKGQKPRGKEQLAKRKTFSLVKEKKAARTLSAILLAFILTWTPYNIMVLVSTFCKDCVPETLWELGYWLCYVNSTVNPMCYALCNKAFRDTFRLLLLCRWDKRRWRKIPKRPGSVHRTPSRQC
Experimental: In vitro Binding Methods for [3H]-pirenzepine Binding
For in vitro 3H-pirenzepine binding, male Sprague-Dawley (Harlan Sprague Dawley, Indianapolis, Ind.) rats weighing 100-150 gm were sacrificed by decapitation, the brains were quickly removed, and the cerebral cortex was dissected from the brain. Cerebral cortical membranes were prepared by differential centrifugation, washed twice and frozen until used.
The inhibition of binding of 3H-pirenzepine to receptors was determined by adding study drug, 1 nM 3H-pirenzepine (87.0 Ci/mmol, New England Nuclear, Boston, Mass.), and about 100 ug cerebral cortical membranes in 1 ml total volume of 20 mM tris-Cl buffer, pH 7.4, containing 1 mM MnCl2. After incubation for 1 hour at 25° C., the homogenates were filtered through glass filters (Whatman, GF/c) with vacuum, the filters were washed 3 times with 2 ml cold buffer, and placed in scintillation vials containing 10 ml scintillation fluid (Ready Protein +, Beckman, Fullerton, Calif.).
Radioactivity trapped on the filters was determined by liquid, scintillation spectrometry. Nonspecific binding was determined using 1 uM atropine.
(§1) Table II summarizes the effect of typical formula I compounds on muscarinic (M1) receptors.

[2] = system: brain 5-HIAA levels; experiment: In vivo lowering of brain 5-HIAA levels; design: species or system rat (male Sprague-Dawley); settings: Rattus norvegicus, 1 h, minimum effective dose lowering brain 5-HIAA, one hour after treatment, read-out: 5-HIAA MED
Experimental: (§2) In vivo Methods to Show 5HT1A Activity
(§3) Compounds of this invention were also examined for their in vivo effects on brain 5-HIAA and serum corticosterone levels. Male Sprague-Dawley rats weighing 150-200 g were administered subcutaneously or orally with aqueous solutions of the test compound. One hour after treatment, the rats were decapitated and trunk blood collected. The blood was allowed to clot and then was centrifuged to separate the serum. The concentration of corticosterone in the serum was determined by the spectrofluorometric method of Solem, J. H.; Brinck-Johnsen, T., Scand. J. Clin. Invest, [Suppl. 80], 17, 1 (1965). The whole brains from the decapitated rats were quickly removed, frozen on dry ice, and stored at -15° C. 5-HIAA concentrations were measured by liquid chromatography with electrochemical detection as described by Fuller, R. W.; Snoddy, H. D.; Perry, K. W., Life Sci. 40, 1921 (1987).
(§4) The results in columns 6-8 are indicative of 5-HT1A agonist activity.

[3] = system: serum corticosterone levels; experiment: In vivo elevation of serum corticosterone levels; design: species or system rat (male Sprague-Dawley); settings: Rattus norvegicus, sc, 1 h, read-out: Corticosterone MED
Experimental: as §2, §3, §4

[4] = biological target: T2, 5HT1A receptors (Rattus norvegicus, UniProt P19327); experiment: In vitro binding to 5HT1A receptors (inhibition of 3H-8-OH-DPAT binding, rat cerebral cortex synaptosomal membranes); design: species or system rat (male Sprague-Dawley); settings: for IC50: inhibition of 3H-8-OH-DPAT binding, rat cerebral cortex, read-out: Radioligand binding data (IC50, nM) 5-HT1a
T2 construct: synaptosomal membranes isolated from cerebral cortex; from tissue; host or cells: rat cerebral cortex, crude synaptosomal membranes
T2 sequence (P19327 1-422): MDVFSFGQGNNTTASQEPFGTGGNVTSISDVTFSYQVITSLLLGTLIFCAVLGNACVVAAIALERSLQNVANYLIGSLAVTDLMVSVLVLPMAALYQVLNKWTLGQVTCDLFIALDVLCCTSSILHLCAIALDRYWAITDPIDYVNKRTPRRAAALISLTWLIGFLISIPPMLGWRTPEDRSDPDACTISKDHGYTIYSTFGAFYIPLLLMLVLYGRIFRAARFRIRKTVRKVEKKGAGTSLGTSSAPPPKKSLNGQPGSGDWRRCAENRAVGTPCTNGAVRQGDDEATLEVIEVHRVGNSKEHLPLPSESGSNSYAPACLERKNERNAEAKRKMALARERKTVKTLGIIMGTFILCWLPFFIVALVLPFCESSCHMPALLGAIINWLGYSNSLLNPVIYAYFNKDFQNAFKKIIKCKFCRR
Text: Sites specifically labeled by tritiated 8-hydroxy-2-dipropylamino-1,2,3,4-tetrahydronaphthalene (^3 H-8-OH-DPAT) have been identified as 5-HT1A receptors. This general procedure is set forth in Wong et al., J. Neural Transm. 71: 207-218 (1988).
In vitro Binding Methods to 5HT1A Receptors
Male Sprague-Dawley rats (110-150 g) from Harlan Industries (Cumberland, Ind.) were fed Purina Chow ad libitum for at least 3 days before being used in the studies. Rats were killed by decapitation. The brains were rapidly removed, and the cerebral cortices were dissected out at 4° C.
Brain tissues were homogenized in 0.32M sucrose. After centrifugation at 1000× g for 10 min. and then at 17000× g for 20 min., a crude synaptosomal fraction was sedimented. The pellet was suspended in 100 vol. of 50 mM Tris-HCl, pH 7.4, incubated at 37° C. for 10 min., and centrifuged at 50000× g for 10 min. The process was repeated and the final pellet was suspended in ice-chilled 50 mM Tris-HCl, pH 7.4.
Binding of ^3 H-8-OH-DPAT was performed according to the previously described method [Wong et al., J. Neural Transm. 64: 251-269 (1985)]. Briefly, synaptosomal membranes isolated from cerebral cortex were incubated at 37° C. for 10 min. in 2 ml of 50 mM Tris-HCl, pH 7.4; […]; 0.6 mM ascorbic acid; 5 mM CaCl2; 2 nM 3H-8-OH-DPATand 0.1 to 1000 nm of the compound of interest. Binding was terminated by filtering samples under reduced pressure through glass fiber (GFB) filters. The filters were washed twice with 5 ml of ice cold buffer and placed in scintillation vials with 10 ml of PCS (Amersham/Searle) scintillation fluid. Radioactivity was measured with a liquid scintillation spectrometer. Unlabeled 8-OH-DPAT at […] was also included in separate samples to establish non-specific binding. Specific binding of ^3 H-8-OH-DPAT is defined as the difference of radioactivity bound in the absence and in the presence of 10 μM unlabeled 8-OH-DPAT.
as §4

[5] = system: rat colon (carbachol-induced contraction); experiment: Reversal of carbachol-induced hypertone (contraction of rat colon strips in vitro); design: species or system rat (male Sprague-Dawley); settings: colonic smooth muscle in vitro, read-out: Blockade of carbachol-induced contraction of rat colon (IC50)
Experimental: Reversal of Carbachol-Induced Hypertone
Male Spraque-Dawley rats weighing 300-350 gm were starved for 24 hours. The rats were brought to the lab and decapitated and colons were removed immediately. Fecal content was washed and longitudinal strips 4 cm long were placed in organ baths under 1 gm tension using Grass FT03 transducers. Tissues were allowed to equilibrate and were gassed with 95% oxygen and 5% carbon dioxide. The tissues were then contracted with carbachol to produce a tonic response. Then the drug solutions were added to see relaxation. Percent relaxation was calculated from the pre-treatment control period. For many compounds more than one concentration of the drug was tested. In these situations an IC50 was calculated, which is the dose which inhibited carbachol induced response by 50%.
as §1

[6] = system: pylorus ligated rats (gastric acid secretion); assay type: in vivo, rat (male Sprague-Dawley); settings: 2 h
Experimental: Gastric acid inhibition was determined in pylorus ligated rats following the procedure by Shay (Shay, H., Komarov, A. A. and Greenstein, M: Effects of vagotomy in the rat, Arch. Surg. 59: 210-226, 1949). Male Sprague-Dawley rats weighing approximately 200 gm were starved 24 hours prior to using. Water was provided ad libitrim. Under light ether anesthesia the pylorus was ligated and simultaneously the rats were dosed with the compound either i.p. or s.c. and the rats were allowed to recover from anesthetic. Acid was accumulated for 2 hours. At the end of this period, rats were killed. Stomach contents were removed, measured and titrated to a pH endpoint of 7.0.
as §4

[7] = system: gastric secretion; settings: intravenous infusion in humans; cited from earlier work

Row | SMILES | pIC50 [1] | minimal effective dose ([2]; sc) | minimal effective dose [3] | IC50 [4] | pIC50 [5] | minimal effective dose ([2]; po) | Gastric Acid Inhibition % [6] | IC50 [1] | pIC50 [4] | effect on production of mucus [7] | effect on volume and acidity of spontaneous and histamine-induced gastric secretion [7] | minimal effective dose ([3]; minimum effective dose elevating serum corticosterone, one hour after treatment)
1 | CCCN(CCC)C1CCc2cccc(-c3cc(Br)no3)c2C1.O=C(O)/C=C\C(=O)O (stereo not drawn) [Example 2, 2-(Di-n-propylamino)-8-(3-bromoisoxazol-5-yl)-1,2,3,4-tetrahydronaphthalene maleate] | 6.66 | > 1 mg/kg | > 1 mg/kg | 2.5 nM | 5.34 | – | – | – | – | – | – | –
2 | CCCN(CCC)C1CCc2cccc(-c3ccno3)c2C1.O=C(O)/C=C\C(=O)O (stereo not drawn) [Example 1, 2-(Di-n-propylamino)-8-(isoxazol-5-yl)-1,2,3,4-tetrahydronaphthalene maleate] | – | 0.1 mg/kg | 0.3 mg/kg | 0.44 nM | 5.09 | 3 mg/kg | 69.6% | – | – | – | – | –
3 | CCCN(CCC)C1CCc2cccc(-c3cc(-c4ccccc4)no3)c2C1 (stereo not drawn) [Example 6, 2-(Di-n-propylamino)-8-(3-phenylisoxazol-5-yl)-1,2,3,4-tetrahydronaphthalene hydrobromide] | – | – | – | 72 nM | – | – | – | 750 nM | – | – | – | –
4 | CCCN(CCC)[C@H]1CCc2cccc(-c3ccno3)c2C1 [Example 9, S-(-)-8-(isoxazol-5-yl)-2-dipropylamino-1,2,3,4-tetrahydronaphthalene maleate] | – | – | – | – | 5.60 | 3 mg/kg | 96.8% | 180 nM | 9.70 | – | – | –
5 | NCCc1c[nH]c2ccc(O)cc12 [Example 5-HT, 5-hydroxytryptamine] | – | – | – | – | – | – | – | – | – | increasing the production of mucus | inhibits the volume and acidity of both spontaneous and histamine-induced gastric secretion | –
6 | CCCN(CCC)C1CCc2cccc(O)c2C1 (stereo not drawn) [8-OH DPAT, 8-hydroxy-2-dipropylamino-1,2,3,4-tetrahydronaphthalene, reference compound] | 5.71 | – | – | – | 4.53 | – | 72.4% | – | – | – | – | –
7 | CCCN(CCC)[C@@H]1CCc2cccc(-c3ccno3)c2C1.O=C(O)/C=C\C(=O)O [Example 10, R-(+)-8-(isoxazol-5-yl)-2-dipropylamino-1,2,3,4-tetrahydronaphthalene maleate] | 6.82 | – | – | 1.4 nM | 5.04 | 10 mg/kg | 47.1% | – | – | – | – | –
8 | CCCN(CCC)C1CCc2cccc(-c3cc(SC)no3)c2C1 (stereo not drawn) [Example 7, 2-(Di-n-propylamino)-8-(3-methylthioisoxazol-5-yl)-1,2,3,4-tetrahydronaphthalene maleate] | – | > 1 mg/kg | – | – | – | – | 65.4% | 173 nM | 8.92 | – | – | > 1 mg/kg
9 | Br.CCCN(CCC)C1CCc2cccc(-c3oncc3OC)c2C1 (stereo not drawn) [Example 8, 2-(Di-n-propylamino)-8-(4-methoxyisoxazol-5-yl)-1,2,3,4-tetrahydronaphthalene hydrobromide] | 6.71 | 1 mg/kg | > 1 mg/kg | 1.7 nM | – | – | 46.8% | – | – | – | – | –
10 | N[C@@H](Cc1c[nH]c2ccc(O)cc12)C(=O)O [Example 5-HTP, 5-hydroxytryptophane] | – | – | – | – | – | – | – | – | – | increasing the production of mucus | inhibits the volume and acidity of both spontaneous and histamine-induced gastric secretion | –
11 | CCCN(CCC)C1CCc2cccc(-c3cc(C)no3)c2C1.O=C(O)/C=C\C(=O)O (stereo not drawn) [Example 5, 2-(Di-n-propylamino)-8-(3-methylisoxazol-5-yl)-1,2,3,4-tetrahydronaphthalene maleate] | 6.97 | 1 mg/kg | > 1 mg/kg | 1.3 nM | – | – | 95.8% | – | – | – | – | –
12 | CCCN(CCC)C1CCc2cccc(-c3oncc3C)c2C1.O=C(O)/C=C\C(=O)O (stereo not drawn) [Example 3, 2-(Di-n-propylamino)-8-(4-methylisoxazol-5-yl)-1,2,3,4-tetrahydronaphthalene maleate] | 6.72 | 0.3 mg/kg | 1 mg/kg | 1.9 nM | – | > 10 mg/kg | 95.7% | – | – | – | – | –

— patent US5434174A, “Isoxazole derivatives for the treatment of irritable bowel syndrome” (priority 1993, dated 1995)
